{
  "source": "patent US20060264419A1",
  "about": "(priority 2003, published 2006)",
  "data": [
    {"target": "5-HT2A receptors (Rattus norvegicus, UniProt P14842)", "sequence (P14842 whole entry)": "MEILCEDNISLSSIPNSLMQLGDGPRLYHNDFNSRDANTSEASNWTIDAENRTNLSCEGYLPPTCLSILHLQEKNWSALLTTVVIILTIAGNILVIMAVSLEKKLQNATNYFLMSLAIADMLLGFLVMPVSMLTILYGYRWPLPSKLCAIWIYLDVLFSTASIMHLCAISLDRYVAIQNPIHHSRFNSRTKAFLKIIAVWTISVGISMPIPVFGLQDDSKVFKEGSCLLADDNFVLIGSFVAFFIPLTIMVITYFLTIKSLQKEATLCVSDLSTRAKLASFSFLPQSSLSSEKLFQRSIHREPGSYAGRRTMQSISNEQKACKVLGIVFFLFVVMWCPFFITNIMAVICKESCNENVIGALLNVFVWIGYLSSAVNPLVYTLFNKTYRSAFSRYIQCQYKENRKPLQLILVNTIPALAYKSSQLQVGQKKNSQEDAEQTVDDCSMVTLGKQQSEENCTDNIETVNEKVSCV", "experiment": "in-vitro affinity to 5-HT2A receptors, displacement of [3H]ketanserine (Example A1)", "format": "binding", "details": "read-out: HT2A IC50", "excerpt": "(§1) The 5-HT2A receptors are exposed both to [^3H]ketanserine (a substance which is known for its affinity to the receptor) and also to the test compound. The decrease in the affinity of [^3H]ketanserine to the receptor is an indication of the affinity of the test substance to the 5-HT2A receptor.", "units": {"IC50": "nM"}, "values": [
      {"compound": "Fc1ccccc1-c1c(C=CCN2CCOCC2)cnn1-c1ccc(-c2ccccc2)cc1", "note": "[Example 908, 4-{3-[1-Biphenyl-4-yl-5-(2-fluorophenyl)-1H-pyrazol-4-yl]allyl}morpholine]", "IC50": 17},
      {"compound": "CN1CCN(Cc2cnn(-c3ccc(-c4ccc(F)cc4)cc3)c2-c2cccc(F)c2)CC1", "note": "[Example 911, 1-[1-(4′-Fluorobiphenyl-4-yl)-5-(3-fluoro-phenyl)-1H-pyrazol-4-ylmethyl]-4-methyl-piperazine]", "IC50": 19},
      {"compound": "Fc1ccccc1-c1c(CCCN2CCOCC2)cnn1-c1ccc(-c2ccccc2)cc1", "note": "[Example 917, 4-{3-[1-Biphenyl-4-yl-5-(2-fluoro-phenyl)-1H-pyrazol-4-yl]propyl}morpholine]", "IC50": 23},
      {"compound": "CN(C)C1CCN(Cc2cnn(-c3ccc(-c4ccccc4)cc3)c2-c2ccccc2F)C1", "note": "(stereo not drawn) [Example 936, {1-[1-Biphenyl-4-yl-5-(2-fluoro-phenyl)-1H-pyrazol-4-ylmethyl]pyrrolidin-3-yl}dimethyl-amine]", "IC50": 35},
      {"compound": "CCN1CCN(Cc2cnn(-c3ccc(-c4ccc(F)cc4)cc3)c2-c2cccc(OC)c2)CC1", "note": "[Example 938, 1-Ethyl-4-[1-(4′-fluorobiphenyl-4-yl)-5-(3-methoxyphenyl)-1H-pyrazol-4-ylmethyl]-piperazine]", "IC50": 35},
      {"compound": "Fc1ccccc1-c1c(CN2CC=CC2)cnn1-c1ccc(-c2ccccc2)cc1", "note": "[Example 939, 1-Biphenyl-4-yl-4-(2,5-dihydropyrrol-1-yl-methyl)-5-(2-fluorophenyl)-1H-pyrazole]", "IC50": 36},
      {"compound": "Cc1cccc(-c2c(CN3CCN(C)CC3)cnn2-c2ccc(-c3ccc(F)cc3)cc2)c1", "note": "[Example 940, 1-[1-(4′-Fluorobiphenyl-4-yl)-5-m-tolyl-1H-pyrazol-4-ylmethyl]-4-methylpiperazine]", "IC50": 37},
      {"compound": "Fc1ccccc1-c1c(CN2CCCCCC2)cnn1-c1ccc(-c2ccccc2)cc1", "note": "[Example 948, 1-[1-Biphenyl-4-yl-5-(2-fluorophenyl)-1H-pyrazol-4-ylmethyl]azepan]", "IC50": 48},
      {"compound": "Fc1ccc(CCN2CCN(Cc3cnn(-c4ccccn4)c3-c3ccccc3F)CC2)cc1", "note": "[Example 950, 1-[2-(4-Fluorophenyl)ethyl]-4-[5-(2-fluoro-phenyl)-1-pyridin-2-yl-1H-pyrazol-4-ylmethyl]-piperazine]", "IC50": 53},
      {"compound": "COc1ccc(-c2c(CN3CCN(CCN4CCCC4)CC3)cnn2-c2ccc(-c3ccc(F)cc3)cc2)cc1", "note": "[Example 954, 1-[1-(4′-Fluorobiphenyl-4-yl)-5-(4-methoxy-phenyl)-1H-pyrazol-4-ylmethyl]-4-(2-pyrroli-din-1-ylethyl)piperazine]", "IC50": 56},
      {"compound": "CN1CCN(Cc2cnn(-c3ccc(-c4ccc(F)cc4F)cc3)c2-c2ccccc2F)CC1", "note": "[Example 955, 1-[1-(2′,4′-Difluorobiphenyl-4-yl)-5-(2-fluoro-phenyl)-1H-pyrazol-4-ylmethyl]-4-methyl-piperazine]", "IC50": 56},
      {"compound": "CCc1ccc(-c2ccc(-n3ncc(CN4CCN(C)CC4)c3-c3ccccc3F)cc2)cc1", "note": "[Example 956, 1-[1-(4′-Ethylbiphenyl-4-yl)-5-(2-fluorophenyl)-1H-pyrazol-4-ylmethyl]-4-methylpiperazine]", "IC50": 57},
      {"compound": "CCOC(=O)N1CCN(Cc2cnn(-c3ccc(-c4ccccc4)cc3)c2-c2ccccc2F)CC1", "note": "[Example 957, Ethyl 4-[1-biphenyl-4-yl-5-(2-fluoro-phenyl)-1H-pyrazol-4-ylmethyl]piperazine-1-carboxylate]", "IC50": 58},
      {"compound": "Cc1ccc(-c2ccc(-n3ncc(CN4CCN(C)CC4)c3-c3ccccc3F)cc2)c(F)c1F", "note": "[Example 959, 1-[1-(2′,3′-Difluoro-4′-methylbiphenyl-4-yl)-5-(2-fluorophenyl)-1H-pyrazol-4-ylmethyl]-4-methylpiperazine]", "IC50": 60},
      {"compound": "Fc1ccccc1-c1c(CN2CCC(Cc3cccnc3)CC2)cnn1-c1ccc(-c2ccccc2)cc1", "note": "[Example 962, 3-{1-[1-Biphenyl-4-yl-5-(2-fluoro-phenyl)-1H-pyrazol-4-ylmethyl}piperidin-4-ylmethyl]pyridine]", "IC50": 66},
      {"compound": "CN1CCN(Cc2cnn(-c3ccc(-c4cccc(Cl)c4)cc3)c2-c2ccccc2F)CC1", "note": "[Example 963, 1-[1-(3′-Chlorobiphenyl-4-yl)-5-(2-fluoro-phenyl)-1H-pyrazol-4-ylmethyl]-4-methyl-piperazine]", "IC50": 69}
    ]},
    {"target": "5-HT2A receptors (Rattus norvegicus, UniProt P14842)", "experiment": "in-vitro affinity to 5-HT2A receptors, displacement of [3H]ketanserine (Example A1)", "format": "binding", "details": "target not given; description names affinity to 5-HT2A receptors; read-out: IC50", "excerpt": "as §1", "units": {"IC50": "nM"}, "values": [
      {"compound": "Fc1ccc(-c2ccc(-n3ncc(CNc4ccon4)c3-c3ccccc3F)cn2)cc1", "note": "[(174), {5-(2-Fluorophenyl)-1-[6-(4-fluorophenyl)pyridin-3-yl]-1H-pyrazol-4-ylmethyl}isoxazol-3-ylamine]", "IC50": 320},
      {"compound": "CC(C)(C)OC(=O)N1CCC(NCc2cnn(-c3ccc(-c4ccccc4)cc3)c2-c2ccccc2F)C1", "note": "(stereo not drawn) [(176), tert-Butyl 3-{[1-biphenyl-4-yl-5-(2-fluorophenyl)-1H-pyrazol-4-ylmethyl]amino}pyrrolidine-1-carboxylate]", "IC50": 460},
      {"compound": "Nc1ccncc1NCc1cnn(-c2ccc(-c3ccccc3)cc2)c1-c1ccccc1F", "note": "[(177), N^3-[1-Biphenyl-4-yl-5-(2-fluorophenyl)-1H-pyrazol-4-ylmethyl]-pyridine-3,4-diamine]", "IC50": 180},
      {"compound": "Cc1cnc(NCc2cnn(-c3ccc(-c4ccccc4)cc3)c2-c2ccccc2F)s1", "note": "[(178), [1-Biphenyl-4-yl-5-(2-fluorophenyl)-1H-pyrazol-4-ylmethyl]-(5-methylthiazol-2-yl)amine]", "IC50": 370},
      {"compound": "CC(C)(C)OC(=O)CNCc1cnn(-c2ccc(-c3ccccc3)cc2)c1-c1cccnc1", "note": "[(179), tert-Butyl [(1-biphenyl-4-yl-5-pyridin-3-yl-1H-pyrazol-4-ylmethyl)amino]acetate]", "IC50": 1000},
      {"compound": "CN(CC(=O)OC(C)(C)C)Cc1cnn(-c2ccc(-c3ccccc3)cc2)c1-c1cccnc1", "note": "[(180), tert-Butyl [(1-biphenyl-4-yl-5-pyridin-3-yl-1H-pyrazol-4-ylmethyl)methylamino]acetate]", "IC50": 920},
      {"compound": "Cc1cc(CNCc2cnn(-c3ccc(-c4ccccc4)cc3)c2-c2ccccc2)no1", "note": "[(181), (1-Biphenyl-4-yl-5-phenyl-1H-pyrazol-4-ylmethyl)-(5-methylisoxazol-3-ylmethyl)amine]", "IC50": 240},
      {"compound": "CCOC(=O)N1CCN(Cc2cnn(-c3ccc(-c4ccccc4)cc3)c2-c2ccccc2F)CC1", "note": "[(182), Ethyl 4-[1-biphenyl-4-yl-5-(2-fluorophenyl)-1H-pyrazol-4-ylmethyl]piperazine-1-carboxylate]", "IC50": 58},
      {"compound": "COC(=O)CCNCc1cnn(-c2ccc(-c3ccccc3)cc2)c1-c1cccnc1", "note": "[(183), Methyl 3-[(1-biphenyl-4-yl-5-pyridin-3-yl-1H-pyrazol-4-ylmethyl)amino]propionate]", "IC50": 830},
      {"compound": "Fc1ccccc1-c1c(CN2CCN(Cc3ccncc3)CC2)cnn1-c1ccc(-c2ccccc2)cc1", "note": "[(184), 1-[1-Biphenyl-4-yl-5-(2-fluorophenyl)-1H-pyrazol-4-ylmethyl]-4-pyridin-4-ylmethylpiperazine]", "IC50": 75},
      {"compound": "Fc1ccccc1-c1c(CCN2CCOCC2)cnn1-c1ccc(-c2ccccc2)cc1", "note": "[(185), 4-{2-[1-Biphenyl-4-yl-5-(2-fluorophenyl)-1H-pyrazol-4-yl]ethyl}morpholine]", "IC50": 40},
      {"compound": "Cc1nn(C)c(C)c1NCc1cnn(-c2ccc(-c3ccccc3)cc2)c1-c1ccccc1F", "note": "[(187), [1-Biphenyl-4-yl-5-(2-fluorophenyl)-1H-pyrazol-4-ylmethyl]-(1,3,5-trimethyl-1H-pyrazol-4-yl)amine]", "IC50": 590},
      {"compound": "NCCc1cnn(-c2ccc(-c3ccccc3)cc2)c1-c1ccccc1F", "note": "[(188), 2-[1-Biphenyl-4-yl-5-(2-fluorophenyl)-1H-pyrazol-4-yl]-ethylamine]", "IC50": 1400},
      {"compound": "Fc1ccccc1-c1c(CCl)cnn1-c1ccc(-c2ccccc2)cc1", "note": "[(189), 1-Biphenyl-4-yl-4-chloromethyl-5-(2-fluorophenyl)-1H-pyrazole]", "IC50": 1100},
      {"compound": "CC(C)(C)OC(=O)N1CC2C(C1)C2NCc1cnn(-c2ccc(-c3ccccc3)cc2)c1-c1ccccc1F", "note": "(stereo not drawn) [(190), tert-Butyl 6-{[1-biphenyl-4-yl-5-(2-fluorophenyl)-1H-pyrazol-4-ylmethyl]amino}-3-azabicyclo[3.1.0]hexane-3-carboxylate]", "IC50": 520},
      {"compound": "O=c1ccccn1Cc1cnn(-c2ccc(-c3ccccc3)cc2)c1-c1ccccc1F", "note": "[(191), 1-[1-Biphenyl-4-yl-5-(2-fluorophenyl)-1H-pyrazol-4-ylmethyl]-1H-pyridin-2-one]", "IC50": 200},
      {"compound": "Fc1ccccc1-c1c(CNC2C3CNCC32)cnn1-c1ccc(-c2ccccc2)cc1", "note": "(stereo not drawn) [(192), (3-Azabicyclo[3.1.0]hex-6-yl)-[1-biphenyl-4-yl-5-(2-fluorophenyl)-1H-pyrazol-4-ylmethyl]amine]", "IC50": 320},
      {"compound": "O=C(c1cnn(-c2ccc(-c3ccccc3)cc2)c1-c1ccccc1F)N1CCOCC1", "note": "[(193), 1-[1-Biphenyl-4-yl-5-(2-fluorophenyl)-1H-pyrazol-4-yl]-1-morpholin-4-ylmethanone]", "IC50": 360},
      {"compound": "Nc1ccc(NCc2cnn(-c3ccc(-c4ccc(F)cc4)nc3)c2-c2ccccc2F)cn1", "note": "[(194), N^5-{5-(2-Fluorophenyl)-1-[6-(4-fluorophenyl)pyridin-3-yl]-1H-pyrazol-4-ylmethyl}pyridine-2,5-diamine]", "IC50": 590},
      {"compound": "Fc1ccccc1-c1c(CN2CCC(Cc3cccnc3)CC2)cnn1-c1ccc(-c2ccccc2)cc1", "note": "[(195), 3-{1-[1-Biphenyl-4-yl-5-(2-fluorophenyl)-1H-pyrazol-4-ylmethyl]piperidin-4-ylmethyl}pyridine]", "IC50": 66},
      {"compound": "Fc1ccc(-c2ccc(-n3ncc(CNc4cnccn4)c3-c3ccccc3F)cn2)cc1", "note": "[(196), {5-(2-Fluorophenyl)-1-[6-(4-fluorophenyl)pyridin-3-yl]-1H-pyrazol-4-ylmethyl}pyrazin-2-ylamine]", "IC50": 1200},
      {"compound": "Nc1ncc(NCc2cnn(-c3ccc(-c4ccc(F)cc4)nc3)c2-c2ccccc2F)cn1", "note": "[(197)]", "IC50": 1300},
      {"compound": "CN1CCN(Cc2cnn(-c3ccc(-c4ccccc4)nc3)c2-c2cccnc2)CC1", "note": "[(198), 1-Methyl-4-[1-(6-phenylpyridin-3-yl)-5-pyridin-3-yl-1H-pyrazol-4-ylmethyl]piperazine]", "IC50": 140}
    ]}
  ]
}
